Measurements as given in publication PMC4077706, “Lifting the Mask: Identification of New Small Molecule Inhibitors of Uropathogenic Escherichia coli Group 2 Capsule Biogenesis” (PLoS ONE, 2014).
Where two headings read alike, the source gives them in different places. Ends that are not written are not given here.

Assays:
[1] = not told; cited from earlier work
[2] = target: T1, Transporter, GABA (Rattus norvegicus, UniProt P23978); assay: Radioligand binding 226400; details: read-out: IC50 Concurrent
T1 construct: Wistar Rat cerebral cortex; tissue Eurofins Panlabs 226400; host or cells: Wistar rat cerebral cortex

[3] = target: T1, Transporter, GABA; details: cited from earlier work
[4] = target: T2, Calcium Channel L-Type, Dihydropyridine (Rattus norvegicus, UniProt P22002); assay type: binding; details: read-out: IC50 Concurrent
T2 sequence (P22002 whole entry): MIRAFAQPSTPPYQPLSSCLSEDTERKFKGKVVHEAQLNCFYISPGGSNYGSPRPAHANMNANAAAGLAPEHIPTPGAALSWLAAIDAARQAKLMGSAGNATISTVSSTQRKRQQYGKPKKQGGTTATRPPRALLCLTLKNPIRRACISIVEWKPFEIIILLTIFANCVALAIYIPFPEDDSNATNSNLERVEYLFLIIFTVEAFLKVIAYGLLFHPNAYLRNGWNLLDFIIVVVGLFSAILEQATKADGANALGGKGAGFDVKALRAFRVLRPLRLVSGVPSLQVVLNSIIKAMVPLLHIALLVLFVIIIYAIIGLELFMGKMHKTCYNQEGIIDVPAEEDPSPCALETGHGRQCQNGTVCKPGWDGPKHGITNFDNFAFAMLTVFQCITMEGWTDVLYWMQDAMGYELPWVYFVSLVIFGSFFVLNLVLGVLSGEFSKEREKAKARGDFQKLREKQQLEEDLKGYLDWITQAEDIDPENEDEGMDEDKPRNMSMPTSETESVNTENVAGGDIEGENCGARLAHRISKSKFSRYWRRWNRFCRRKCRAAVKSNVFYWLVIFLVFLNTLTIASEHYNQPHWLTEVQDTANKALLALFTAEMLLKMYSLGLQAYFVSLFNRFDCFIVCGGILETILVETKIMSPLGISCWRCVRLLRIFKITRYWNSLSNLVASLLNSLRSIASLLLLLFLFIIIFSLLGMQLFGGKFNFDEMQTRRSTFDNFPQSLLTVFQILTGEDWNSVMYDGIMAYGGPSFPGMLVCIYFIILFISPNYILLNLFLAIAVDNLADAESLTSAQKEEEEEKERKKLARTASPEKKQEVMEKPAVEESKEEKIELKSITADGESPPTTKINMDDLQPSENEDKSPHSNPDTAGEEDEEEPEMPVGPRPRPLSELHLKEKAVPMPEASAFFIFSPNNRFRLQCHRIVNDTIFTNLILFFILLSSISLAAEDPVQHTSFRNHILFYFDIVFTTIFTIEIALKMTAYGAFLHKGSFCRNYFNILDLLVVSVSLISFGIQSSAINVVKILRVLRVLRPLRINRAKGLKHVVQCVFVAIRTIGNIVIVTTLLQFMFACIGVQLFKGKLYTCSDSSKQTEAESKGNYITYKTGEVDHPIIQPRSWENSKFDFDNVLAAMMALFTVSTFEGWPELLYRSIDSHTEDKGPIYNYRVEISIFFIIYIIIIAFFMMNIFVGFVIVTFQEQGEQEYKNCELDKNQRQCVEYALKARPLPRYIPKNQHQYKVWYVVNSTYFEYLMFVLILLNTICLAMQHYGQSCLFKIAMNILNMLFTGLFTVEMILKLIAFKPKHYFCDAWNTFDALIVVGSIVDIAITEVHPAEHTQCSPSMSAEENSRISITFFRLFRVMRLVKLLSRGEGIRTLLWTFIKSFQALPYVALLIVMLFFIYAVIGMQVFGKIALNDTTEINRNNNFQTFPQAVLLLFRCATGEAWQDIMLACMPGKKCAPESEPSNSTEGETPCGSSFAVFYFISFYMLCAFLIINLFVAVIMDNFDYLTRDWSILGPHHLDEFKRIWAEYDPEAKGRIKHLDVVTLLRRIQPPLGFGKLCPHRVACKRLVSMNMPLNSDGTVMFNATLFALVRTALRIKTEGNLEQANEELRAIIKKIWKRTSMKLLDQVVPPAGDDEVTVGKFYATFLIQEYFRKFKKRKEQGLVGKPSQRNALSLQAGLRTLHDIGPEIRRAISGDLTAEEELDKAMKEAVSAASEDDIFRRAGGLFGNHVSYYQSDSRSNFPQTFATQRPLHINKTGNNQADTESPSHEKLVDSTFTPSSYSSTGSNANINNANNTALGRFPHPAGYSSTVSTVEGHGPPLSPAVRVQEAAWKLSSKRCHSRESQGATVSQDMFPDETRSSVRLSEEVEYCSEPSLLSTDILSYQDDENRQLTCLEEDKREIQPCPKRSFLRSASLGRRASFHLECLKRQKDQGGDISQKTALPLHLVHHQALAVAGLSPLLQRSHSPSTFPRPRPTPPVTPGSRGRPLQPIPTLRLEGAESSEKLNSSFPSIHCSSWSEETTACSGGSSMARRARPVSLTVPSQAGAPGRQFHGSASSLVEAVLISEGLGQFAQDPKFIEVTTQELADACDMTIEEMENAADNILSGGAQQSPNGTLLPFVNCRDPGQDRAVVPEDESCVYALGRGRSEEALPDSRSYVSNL

[5] = target: T2, Calcium Channel L-Type, Dihydropyridine; details: reference compound, vendor historical; cited from earlier work
[6] = system: Phorbol Ester; details: reference compound, vendor historical; cited from earlier work
[7] = target: Phorbol Ester; assay: Radioligand binding 264500; design: species or system mouse; details: reference compound; read-out: IC50 Concurrent
[8] = target: T3, Adrenergic α1B (Rattus norvegicus, UniProt P15823); details: cited from earlier work
T3 construct: Wistar Rat liver; tissue Eurofins Panlabs (assay Cat #) 203200; host or cells: Wistar rat liver

[9] = target: T4, Adrenergic α1A (Rattus norvegicus, UniProt P43140); details: cited from earlier work
T4 construct: Wistar Rat submaxillary gland; tissue Eurofins Panlabs (assay Cat #) 203100; host or cells: Wistar rat submaxillary gland

[10] = target: T5, Prostanoid EP4 (Homo sapiens, UniProt P35408); details: reference compound, vendor historical; cited from earlier work
T5 construct: host or cells: Chem-1

[11] = target: T6, Adenosine A1 (Homo sapiens, UniProt P30542); details: cited from earlier work
T6 construct: host or cells: CHO cells
T6 sequence (P30542 whole entry): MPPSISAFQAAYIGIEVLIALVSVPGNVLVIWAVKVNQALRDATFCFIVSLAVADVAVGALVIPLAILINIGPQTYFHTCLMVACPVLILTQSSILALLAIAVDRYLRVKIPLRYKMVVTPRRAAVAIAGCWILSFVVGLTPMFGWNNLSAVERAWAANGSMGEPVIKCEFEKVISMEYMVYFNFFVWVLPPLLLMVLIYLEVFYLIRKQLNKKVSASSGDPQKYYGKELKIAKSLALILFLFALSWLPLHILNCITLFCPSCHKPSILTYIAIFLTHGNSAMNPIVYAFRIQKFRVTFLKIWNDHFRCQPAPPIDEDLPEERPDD

[12] = target: Rolipram; assay: Radioligand binding 270000; design: species or system rat; details: reference compound; read-out: IC50 Concurrent
[13] = system: Rolipram; details: reference compound, vendor historical; cited from earlier work
[14] = target: Dopamine D2S (Homo sapiens, UniProt P14416); details: cited from earlier work
[15] = target: Histamine H2 (Homo sapiens, UniProt P25021); details: cited from earlier work
[16] = target: T7, Adrenergic α2A (Homo sapiens, UniProt P08913); details: cited from earlier work
T7 construct: host or cells: insect Sf9 cells

[17] = system: Purinergic P2X; details: reference compound, vendor historical; cited from earlier work
[18] = target: Purinergic P2X; assay: Radioligand binding 268700; design: species or system rabbit; details: reference compound; read-out: IC50 Concurrent
[19] = target: Calcium Channel N-Type (Rattus norvegicus, UniProt Q02294); assay: biochemical; assay type: binding
[20] = target: T8, Platelet Activating Factor (PAF) (Homo sapiens, UniProt P25105); details: cited from earlier work
T8 construct: Human platelets; host or cells: human platelets

[21] = target: Bradykinin B2 (Homo sapiens, UniProt P30411); details: cited from earlier work
[22] = target: T9, Nicotinic Acetylcholine α1, Bungarotoxin (Homo sapiens, UniProt P02708+P07510+Q07001); assay type: binding; details: read-out: IC50 Concurrent
T9 sequence (P11230 24-501): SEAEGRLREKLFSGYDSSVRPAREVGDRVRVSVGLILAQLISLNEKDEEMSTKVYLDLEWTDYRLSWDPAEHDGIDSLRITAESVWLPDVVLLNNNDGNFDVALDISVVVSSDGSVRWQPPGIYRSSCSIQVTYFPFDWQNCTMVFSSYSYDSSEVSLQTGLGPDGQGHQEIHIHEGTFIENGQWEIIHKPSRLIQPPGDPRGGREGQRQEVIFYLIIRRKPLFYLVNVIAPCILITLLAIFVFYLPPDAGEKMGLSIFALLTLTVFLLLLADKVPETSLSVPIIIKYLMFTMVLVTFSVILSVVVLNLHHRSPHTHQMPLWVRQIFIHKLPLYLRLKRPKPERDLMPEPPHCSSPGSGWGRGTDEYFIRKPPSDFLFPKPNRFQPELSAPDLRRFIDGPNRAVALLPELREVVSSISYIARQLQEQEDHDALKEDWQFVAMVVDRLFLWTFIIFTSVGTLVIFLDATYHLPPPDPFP
T9 sequence (P02708 21-457): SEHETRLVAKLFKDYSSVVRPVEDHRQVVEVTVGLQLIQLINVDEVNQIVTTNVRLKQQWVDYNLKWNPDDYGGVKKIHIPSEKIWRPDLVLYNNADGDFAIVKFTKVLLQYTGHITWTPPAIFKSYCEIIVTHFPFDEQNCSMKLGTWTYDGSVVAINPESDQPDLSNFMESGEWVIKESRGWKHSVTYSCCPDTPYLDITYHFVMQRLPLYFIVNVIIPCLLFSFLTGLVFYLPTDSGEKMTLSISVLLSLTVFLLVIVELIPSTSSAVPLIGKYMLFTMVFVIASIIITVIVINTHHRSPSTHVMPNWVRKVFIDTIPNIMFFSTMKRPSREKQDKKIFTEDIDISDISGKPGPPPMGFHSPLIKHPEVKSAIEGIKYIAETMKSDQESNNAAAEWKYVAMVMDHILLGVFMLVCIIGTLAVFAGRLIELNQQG
T9 sequence (P07510 23-517): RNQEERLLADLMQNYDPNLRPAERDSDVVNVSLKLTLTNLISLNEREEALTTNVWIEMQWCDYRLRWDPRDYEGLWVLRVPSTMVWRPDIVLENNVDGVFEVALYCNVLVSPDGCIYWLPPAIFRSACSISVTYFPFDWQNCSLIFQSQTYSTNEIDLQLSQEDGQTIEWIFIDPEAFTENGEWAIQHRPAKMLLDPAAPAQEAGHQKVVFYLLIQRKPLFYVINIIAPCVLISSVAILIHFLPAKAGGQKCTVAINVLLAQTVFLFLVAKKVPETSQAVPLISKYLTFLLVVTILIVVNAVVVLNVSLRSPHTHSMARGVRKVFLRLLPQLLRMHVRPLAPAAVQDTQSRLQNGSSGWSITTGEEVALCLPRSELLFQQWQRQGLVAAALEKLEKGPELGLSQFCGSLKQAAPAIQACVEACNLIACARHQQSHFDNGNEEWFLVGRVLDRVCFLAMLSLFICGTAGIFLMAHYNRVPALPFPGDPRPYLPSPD
T9 sequence (Q07001 22-517): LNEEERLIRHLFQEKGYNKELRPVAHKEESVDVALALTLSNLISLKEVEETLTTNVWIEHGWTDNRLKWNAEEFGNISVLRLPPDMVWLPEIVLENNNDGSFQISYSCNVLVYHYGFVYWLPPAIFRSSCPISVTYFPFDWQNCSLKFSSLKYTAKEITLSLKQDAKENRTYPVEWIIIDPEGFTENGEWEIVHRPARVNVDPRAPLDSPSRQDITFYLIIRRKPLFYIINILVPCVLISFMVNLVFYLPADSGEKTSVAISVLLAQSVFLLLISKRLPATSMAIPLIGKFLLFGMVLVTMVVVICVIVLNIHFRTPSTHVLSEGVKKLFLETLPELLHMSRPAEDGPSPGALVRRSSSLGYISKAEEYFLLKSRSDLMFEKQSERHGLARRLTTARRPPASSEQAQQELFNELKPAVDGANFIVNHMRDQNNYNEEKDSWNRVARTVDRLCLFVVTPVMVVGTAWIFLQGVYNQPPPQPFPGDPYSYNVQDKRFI

[23] = target: T9, Nicotinic Acetylcholine α1, Bungarotoxin; details: cited from earlier work

## COCCc1ccc(OCC(O)CNC(C)C)cc1 (stereo not shown) [Metoprolol]
[1]
  permeability of reference standard: moderately permeable

## O=C(O)C1=CCCN(CCON=C(c2ccccc2)c2ccccc2)C1 [NO-711]
[2]
  IC50: 420 nM
[3]
  nH Historical: 1.10
[3]; read-out: IC50 Historical
  IC50: 200 nM
[3]; read-out: Ki Historical
  Ki: 200 nM

## CCOC(=O)C1=C(C)NC(C)=C(C(=O)OC)C1c1cccc([N+](=O)[O-])c1 (stereo not shown) [Nitrendipine, reference compound]
[4]
  IC50: 0.25 nM
[5]
  nH Historical: 0.90

## CCCCCCCCCCCCCC(=O)O[C@@H]1[C@@H](C)[C@@]2(O)[C@@H](C=C(CO)C[C@]3(O)C(=O)C(C)=C[C@@H]23)[C@@H]2C(C)(C)[C@]12OC(C)=O [PMA]
[6]
  IC50: 0.79 nM
  Ki: 0.59 nM
[7]
  IC50: 0.9 nM

## COc1cc2nc(N3CCN(C(=O)c4ccco4)CC3)nc(N)c2cc1OC [Prazosin]
[8]
  nH Historical: 1.0
[9]
  nH Historical: 0.90

## CCCCC[C@H](O)/C=C/[C@H]1[C@H](O)CC(=O)[C@@H]1C/C=C\CCCC(=O)O [Prostaglandin E2 (PGE2), Prostaglandin E2]
[10]
  nH Historical: 0.90

## C[C@H](Cc1ccccc1)Nc1ncnc2c1ncn2[C@@H]1O[C@H](CO)[C@@H](O)[C@H]1O [R(-)-PIA]
[11]
  nH Historical: 0.90

## CNC(=C[N+](=O)[O-])NCCSCc1ccc(CN(C)C)o1 [Ranitidine]
[1]
  permeability of reference standard: poorly permeable

## COc1ccc(C2CNC(=O)C2)cc1OC1CCCC1 (stereo not shown) [Rolipram]
[12]
  IC50: 2.45 nM
[13]
  IC50: 5.7 nM
  Ki: 2.1 nM

## O=C(CCCN1CCC2(CC1)C(=O)NCN2c1ccccc1)c1ccc(F)cc1 [Spiperone]
[14]
  nH Historical: 1.0

## CNC(=NCCSCc1csc(N=C(N)N)n1)NC#N [Tiotidine]
[15]
  nH Historical: 1.10

## COC(=O)[C@@H]1[C@H]2C[C@H]3c4[nH]c5ccccc5c4CCN3C[C@@H]2CC[C@@H]1O [Yohimbine]
[16]
  nH Historical: 0.90

## Nc1ncnc2c1ncn2[C@@H]1O[C@H](COP(=O)(O)CP(=O)(O)OP(=O)(O)O)[C@@H](O)[C@H]1O [α, ȕ-Methylene ATP]
[17]
  IC50: 82 nM
  Ki: 18 nM
[18]
  IC50: 29 nM

## C[C@@H](O)[C@@H]1NC(=O)[C@H](Cc2ccc(O)cc2)NC(=O)[C@@H]2C[C@@H](O)CN2C(=O)[C@H](CC(N)=O)NC(=O)[C@@H]2CSSC[C@@H]3NC(=O)[C@H](CO)NC(=O)[C@H](CO)NC(=O)CNC(=O)[C@@H]4C[C@@H](O)CN4C(=O)[C@H](CO)NC(=O)[C@H](CCCCN)NC(=O)[C@@H](N)CSSC[C@H](NC(=O)[C@H](CSSC[C@@H](C(=O)N[C@@H](Cc4ccc(O)cc4)C(N)=O)NC(=O)[C@H](CCCN=C(N)N)NC(=O)[C@H](CCCCN)NC1=O)NC(=O)[C@H](CC(N)=O)NC(=O)[C@H](Cc1ccc(O)cc1)NC(=O)[C@H](CO)NC(=O)[C@H]([C@@H](C)O)NC(=O)[C@@H]1C[C@@H](O)CN1C(=O)[C@H](CO)NC3=O)C(=O)N[C@@H](CCCN=C(N)N)C(=O)N[C@@H](CO)C(=O)N2 [ω-Conotoxin GVIA, reference compound]
[19]
  IC50: 0.022 nM

## PAF
[20]
  nH Historical: 0.90

## RPPGFSPFR [Bradykinin]
[21]
  nH Historical: 1.0

## α-Bungarotoxin
[22]
  IC50: 1.18 nM
[23]
  nH Historical: 1.10
[23]; read-out: IC50 Historical
  IC50: 1.1 nM
[23]; read-out: Ki Historical
  Ki: 0.72 nM
